Source: patent US6582351B1, “Imidazopyridinone derivatives and their use as phosphodiesterase inhibitors” (Fujisawa Pharmaceutical Co., Ltd., priority 1999, dated 2003)

melting point | SMILES
174 to 175 °C | COc1ccc(Cn2c(=O)n([C@H]3CC[C@H](O)CC3)c3ccc(C)cc32)cc1OC [Example 19(4), 3-(3,4-Dimethoxybenzyl)-1-(trans-4-hydroxycyclohexyl)-5-methyl-2,3-dihydro-1H-benzimidazol-2-one]
262 to 262.5 °C | COc1ccc(Cn2c(=O)n([C@H]3CC[C@H](O)CC3)c3ncc(C(=O)O)cc32)cc1Cl [Example 19(25), 6-Carboxy-1-(3-chloro-4-methoxybenzyl)-3-(trans-4-hydroxycyclohexyl)-2,3-dihydro-1H-imidazo[4,5-b]pyridin-2-one]
106 to 107 °C | COc1ccc(Cn2c(=O)n(CCO)c3ccc(C(F)(F)F)cc32)cc1Cl [Example 4(7), 3-(3-Chloro-4-methoxybenzyl)-1-(2-hydroxyethyl)-5-trifluoromethyl-2,3-dihydro-1H-benzimidazol-2-one]
291.5 to 292 °C | COc1ccc(Cn2c(=O)n([C@H]3CC[C@H](O)CC3)c3ccc(C(N)=O)cc32)cc1Cl [Example 20, 5-carbamoyl-3-(3-chloro-4-methoxybenzyl)-1-(trans-4-hydroxycyclohexyl)-2,3-dihydro-1H-benzimidazol-2-one]

The next lines start with the compound.

SMILES | melting point
COc1ccc(Cn2c(=O)n(-c3ccc4nc[nH]c4c3)c3ncc(C#N)cc32)cc1Cl [Example 2(104), 3-(Benzimidazol-5-yl)-1-(3-chloro-4-methoxybenzyl)-6-cyano-2,3-dihydro-1H-imidazo[4,5-b]pyridin-2-one] | 163 to 166 °C
COc1ccc(Cn2c(=O)n([C@H]3CCN(C(=O)OC(C)(C)C)C3)c3ccc(C(F)(F)F)cc32)cc1OC [Example 2(18), 1-((S)-1-tert-Butoxycarbonylpyrrolidin-3-yl)-3-(3,4-dimethoxybenzyl)-5-trifluoromethyl-2,3-dihydro-1H-benzimidazol-2-one] | 122 to 122.5 °C
COc1ccc(Cn2c(=O)n(C(C)(C)C)c3ccc(C(F)(F)F)cc32)cc1Cl [Example 2(32), 1-(tert-Butyl)-3-(3-chloro-4-methoxybenzyl)-5-trifluoromethyl-2,3-dihydro-1H-benzimidazol-2-one] | 130.5 to 131.5 °C
COc1ccc(Cn2c(=O)n(C3CCCC3)c3ncc(C(F)(F)F)cc32)cc1OC [Example 2(13), 3-Cyclopentyl-1-(3,4-dimethoxybenzyl)-6-trifluoromethyl-2,3-dihydro-1H-imidazo[4,5-b]pyridin-2-one] | 115 to 116 °C
COC(=O)c1cnc2c(c1)n(Cc1ccc(OC)c(Cl)c1)c(=O)n2[C@H]1CC[C@H](O)CC1 [Example 2(98), 1-(3-Chloro-4-methoxybenzyl)-3-(trans-4-hydroxycyclohexyl)-6-methoxycarbonyl-2,3-dihydro-1H-imidazo[4,5-b]pyridin-2-one] | 146 to 148 °C
CCCCn1c(=O)n(Cc2ccc(OC)c(Cl)c2)c2cc(C(F)(F)F)ccc21 [Example 2(36), 1-Butyl-3-(3-chloro-4-methoxybenzyl)-5-trifluoromethyl-2,3-dihydro-1H-benzimidazol-2-one] | 122 to 124 °C
COc1ccc(Cn2c(=O)n([C@H]3CC[C@H](O)CC3)c3ccc([N+](=O)[O-])cc32)cc1C#N [Example 2(97), 3-(3-Cyano-4-methoxybenzyl)-1-(trans-4-hydroxycyclohexyl)-5-nitro-2,3-dihydro-1H-benzimidazol-2-one] | 122 to 124 °C
COc1ccc(Cn2c(=O)n([C@H]3CC[C@H](O)CC3)c3ccc(C#N)cc32)cc1OC [Example 2(5), 5-Cyano-3-(3,4-dimethoxybenzyl)-1-(trans-4-hydroxycyclohexyl)-2,3-dihydro-1H-benzimidazol-2-one] | 209 to 210 °C
COc1ccc(Cn2c(=O)n([C@H]3CC[C@H](OC(C)=O)CC3)c3ccc([N+](=O)[O-])cc32)cc1OC [Example 22(1), 1-(trans-4-Acetoxycyclohexyl)-3-(3,4-dimethoxybenzyl)-5-nitro-2,3-dihydro-1H-benzimidazol-2-one] | 207 to 207.5 °C
